Test results taken from article PMC8025548 (Carbohydrate Polymers, 2021).
≈ marks a conversion by molar mass, not a printed value. Like-named read-outs stand apart in the source and are kept apart here.

Experiments:
[1] = ref Larson, 2019, cited from earlier work
[2] = SBECD-assisted equilibrium solubilization of REM, assayed by HPLC; assay type: physicochemical; settings: for solubility at 24 h: pH 1.9

solubility at 24 h ([2]; 20 % (w/w) aqueous SBECD solution): 7600 to 9700 µg/mL (≈ 12.6 to 16.1 mM)
solubility at 24 h ([2]; 20 % aqueous SBECD solution): 8400 µg/mL (≈ 13.9 mM)
improvement of the aqueous solubility of REM ([2]; with solubilizing carbohydrate (SBECD)): 300 fold
Compound: CCC(CC)COC(=O)[C@H](C)N[P@](=O)(OC[C@H]1O[C@@](C#N)(c2ccc3c(N)ncnn23)[C@H](O)[C@@H]1O)Oc1ccccc1 [REM, Remdesivir]
dissolved REM ([1]; 20 % (w/w) aqueous solution of PEG-400): 3.3 mg/mL
dissolved REM ([1]; 20 % (w/w) aqueous solution of SBECD): 8.5 mg/mL
dissolved REM ([1]; 20 % (w/w) aqueous solution of Tween-80): 3.9 mg/mL
